Measurements as given in patent publication US10905691B2, “Use of triazolo(4,5-d)pyrimidine derivatives for prevention and treatment of bacterial infection” (Universite de Liege, priority 2016, dated 2021).
Where two headings read alike, the source gives them in different places.

What was measured:
[1] = test system: Staphylococcus epidermidis (ATCC 35984, also known as RP62A); assay: MBC and MDK99.9 determination; assay type: cell-based
Procedure: (§1) The Minimal Inhibitory Concentration (MIC) and the Minimal Bactericidal Concentration (MBC) of Triafluocyl were determined in Staphylococcus epidermidis (ATCC 35984, also known as RP62A) according to EUCAST (European Committee on Antimicrobial Susceptibility Testing) recommendations.
We have also determined the MBC, i.e. the concentration at which the liquid culture, when spread on TSA plates, will not produce any colony.
The Minimum Duration for killing 99.9% S. epidermidis (MDK99.9) by Triafluocyl, a tolerance metric according to the EUCAST, was 2 hours.
(§2) For MBC determination a 1:100 inoculum of an O/N culture (prepared like before) was incubated in aerobic conditions for 2 h in bacteria-specific medium. The culture was then challenged with Fluometacyl at the MIC concentration or higher. Bacterial growth was measured after different time intervals by counting the colony-forming units (CFU) after plating appropriate culture dilutions on bacteria-specific medium agar plates.

[2] = test system: S. aureus MRSA (ATCC BAA-1556); assay: Killing curve (CFU counting); assay type: cell-based, Staphylococcus aureus
Procedure: S. aureus MRSA (ATCC BAA-1556) was grown overnight in brain heart infusion (BHI) medium, diluted 1:100 in fresh BHI, and incubated aerobically at 37° C. until bacteria growth reached a logarithmic phase (OD600=0.25-0.3).
Triafluocyl (Cayman Chemical, Item No. 15425) (20 μg/ml), Vancomycin (Sigma, 4 μg/ml or 10 μg/ml), Minocycline (Sigma, 8 μg/ml) or a solvent (DMSO) were added to 5 ml of S. aureus MRSA suspensions.
Bacterial growth for S. aureus MRSA was measured after different time intervals by counting the colony-forming units after plating appropriate culture dilutions on BHI agar plates.
S. aureus MRSA (ATCC BAA-1556) was grown overnight in BHI medium, then a 1:100 inoculum was diluted in fresh BHI and incubated aerobically at 37° C. until bacteria growth reached a logarithmic phase (OD600=0.25-0.3). The culture was split into two and challenged with 38 μM Fluometacyl (=18.2 μg/ml) or DMSO (Ctrl). Bacterial growth was measured after different time intervals by counting the colony-forming units after plating appropriate culture dilutions on BHI agar plates. (N=2)

[3] = test system: Staphylococcus epidermidis (ATCC 35984, also known as RP62A); assay: MIC determination (EUCAST, Mueller-Hinton broth); assay type: cell-based
Procedure: as §1
Briefly, a single colony grown on a Tryptic Soy Agar (TSA) plate was resuspended and cultured in Tryptic Soy Broth (TSB) overnight (O/N) in aerobic conditions (37° C. with 220 rpm shaking), next day a 1:50 inoculum in Mueller-Hinton broth (MHB) was incubated in aerobic conditions for 3 hr and an inoculum of 1:100 dilution, corresponding to 3×10^5 CFU/ml, was incubated in presence or absence of different concentrations of Triafluocyl in 1% DMSO (vehicle). After O/N growth the OD of each culture was measured at 600 nm in a spectrophotometer (OD600). The MIC represents the concentration at which there is no visible growth of bacteria, i.e. ΔOD at 600 nm equal to zero (blank is the medium alone).
The Minimal Inhibitory Concentration (MIC) and the Minimal Bactericidal Concentration (MBC) of Fluometacyl were determined on several gram-positive strains (Table 2) following EUCAST (European Committee on Antimicrobial susceptibility Testing) recommendations.
For MIC determination a single colony was resuspended and cultured in the appropriate bacteria-specific medium (TSB: Tryptic Soy Broth for S. aureus atcc 25904 and S. epidermidis and BHI: brain-heart infusion medium for all the other strains) overnight (O/N) in aerobic conditions (37° C. with 220 rpm shaking), next day a 1:100 inoculum was incubated in Mueller-Hinton broth (MHB) in aerobic conditions for 3 hr (OD600=0.08-0.1). A further inoculum, 1:300 dilution of the MHB culture, corresponding to 3×10^5 CFU/ml, was grown in presence or absence of different concentrations of Fluometacyl, 1% DMSO in MHB for 20 hr.

[4] = test system: E. faecalis vancomycin-resistant (VRE) ATCC BAA-2365; assay: MBC and MDK99.9 determination (CFU counting); assay type: cell-based, Enterococcus faecalis; settings: for MBC: Enterococcus faecalis, cut-off 99.9% reduction in CFU
Procedure: Further experiments were conducted using different strains of E. faecalis, as clinically relevant Gram-positive bacterial strains: E. faecalis vancomycin-resistant (VRE) ATCC BAA-2365, and E. faecalis ATCC 29212 in order to determine the Minimal Inhibitory Concentration (MIC) which is the minimal concentration required to prevent bacterial growth; the Minimal Bactericidal Concentration (MBC) which determines the lowest concentration at which an antimicrobial agent kill a particular microorganism and a Minimum Duration for killing 99.9% bacteria (MDK99.9) which is a tolerance metric according to the EUCAST.
MBC and MDK99.9 determination: A single colony selected from the different strains of E. faecalis is resuspended and cultured in the appropriate medium (TSB, or BHI) overnight (O/N) in aerobic conditions (37° C. with 220 rpm shaking), next day a 1:100 inoculum in the appropriate medium was incubated in aerobic conditions for 2 h. The culture is then challenged with triafluocyl at MIC concentration or higher concentrations. Bacterial growth was measured after different time intervals by counting the colony-forming units after plating appropriate culture dilutions on BHI agar plates. […] And the real time needed is defined as the MDK99.9. MBC for Triafluocyl against E. faecalis vancomycin-resistant (VRE) ATCC BAA-2365 was 20 μg/ml. MDK99.9 for Triafluocyl against E. faecalis vancomycin-resistant (VRE) ATCC BAA-2365 was 24 hours.
as §2

[5] = Staphylococcus epidermidis, ATCC35984, S. epidermidis, read-out: MIC

Row | MIC [3, 5] | MIC ([3]; S. epidermidis) | Compound | MBC ([1]; Staphylococcus epidermidis, ATCC35984, S. epidermidis, cut-off 99.9% reduction in CFU, read-out: MBC) | bactericidal activity against S. aureus MRSA (time-kill) ([2]; 38 μM (=18.2 μg/ml), FIG. 9) | MBC [4] | MBC ([1]; S. epidermidis) | MDK 99.9 Time (h) needed to kill 99.9% of the started inoculum ([1]; S. epidermidis) | MBC ([1]; Staphylococcus epidermidis, ATCC35984, S. epidermidis, read-out: MBC) | effect on S. aureus MRSA viable count after the first two hours ([2]; Triafluocyl 20 μg/ml, Vancomycin 10-fold MIC, Minocycline 8-fold MIC, FIG. 8A) | MDK 99.9 Time (h) needed to kill 99.9% of the started inoculum [4]
1 | 30 µM |  | CCCSc1nc(N[C@@H]2C[C@H]2c2ccc(F)c(F)c2)c2nnn([C@@H]3C[C@H](O)[C@@H](O)[C@H]3O)c2n1 [Fluometacyl, (1S,2R,3S,4R)-4-[7-[[(1R,2S)-2-(3,4-Difluorophenyl)cyclopropyl]amino]-5-(propylthio)-3H-1,2,3-triazolo[4,5-d]pyrimidin-3-yl]-1,2,3-cyclopentanetriol] | 38 µM | bactericidal activity | 38 µM |  |  |  |  | 
2 | 12 ± 3 µg/mL | 15 µg/mL | CCCSc1nc(N[C@@H]2C[C@H]2c2ccc(F)c(F)c2)c2nnn([C@@H]3C[C@H](OCCO)[C@@H](O)[C@H]3O)c2n1 [Triafluocyl, (1S,2S,3R,5S)-3-[7-[(1R,2S)-2-(3,4-difluorophenyl)cyclopropylamino]-5-(propylthio)-3H-[1,2,3]-triazolo[4,5-d]pyrimidin-3-yl]-5-(2-hydroxyethoxy)-1,2-cyclopentanediol] |  |  | 20 µg/mL | 20 µg/mL | 2 h | 17 ± 3 µg/mL | decrease of S. aureus MRSA viable count | 24 h
